{
  "source": "patent US20160317442A1",
  "about": "“Nanosomal preparation of the complex formed by quercetin (or another flavonol, flavone or a derivative thereof) and 2-hydroxypropyl-beta-cyclodextrin for intravenous use in cerebral pathological conditions” (priority 2013, published 2016)",
  "origin": "cited, not measured here",
  "settings": "aqueous preparations",
  "data": [
    {"smiles": "O=c1c(O)c(-c2ccc(O)c(O)c2)oc2cc(O)cc(O)c12", "note": "[quercetin]", "values": [
      {"measurement": "detection of quercetin in the brain", "result": "not detected"}
    ]}
  ]
}
